{
  "source": "paper PMC4877059",
  "about": "(Journal of medicinal chemistry, 2013)",
  "key": {"[1]": {"test_system": "NPS-induced hyperlocomotion", "details": "50 mpk IP, 90 minute mouse model; cited from earlier work"}, "[2]": {"details": "15 min; cited from earlier work"}, "NPSR [3]": {"molecular_target": "T1, NPSR (Homo sapiens, UniProt Q6W5P4)", "T1 sequence (Q6W5P4 1-371)": "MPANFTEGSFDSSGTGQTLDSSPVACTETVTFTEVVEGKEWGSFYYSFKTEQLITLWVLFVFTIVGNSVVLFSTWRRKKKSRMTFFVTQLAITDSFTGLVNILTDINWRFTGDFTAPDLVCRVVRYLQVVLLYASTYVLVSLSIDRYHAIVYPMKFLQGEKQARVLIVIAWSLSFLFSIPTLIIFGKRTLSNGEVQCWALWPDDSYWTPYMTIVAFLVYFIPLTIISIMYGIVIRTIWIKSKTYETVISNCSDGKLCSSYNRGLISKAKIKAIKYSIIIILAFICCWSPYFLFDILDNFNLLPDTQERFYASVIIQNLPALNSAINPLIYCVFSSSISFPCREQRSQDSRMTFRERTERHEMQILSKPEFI", "assay": "ERK assay", "assay_type": "cell-based"}, "[4]": {"details": "0 h"}, "NPSR [5]": {"test_system": "NPSR", "details": "30 mpk IP, discrete regions of the rat brain; cited from earlier work"}, "Wistar rats [6]": {"test_system": "Wistar rats", "details": "rat food intake model; cited from earlier work"}, "Wistar rats [7]": {"test_system": "Wistar rats", "assay": "Rat palatable food intake model", "assay_type": "in vivo"}, "NPSR [8]": {"molecular_target": "T1, NPSR", "assay": "Calcium mobilization assay in CHO-NPSR cells", "assay_type": "cell-based"}, "[9]": {"assay": "Stability in aqueous buffers", "assay_type": "physicochemical", "details": "HBBS or PBS, 48 hours"}, "NPSR [10]": {"molecular_target": "T1, NPSR", "assay": "cAMP assay", "assay_type": "cell-based", "details": "relative to 1b"}, "NPSR [11]": {"molecular_target": "T1, NPSR", "assay": "[125I] Y10-hNPS binding", "details": "relative to 1b"}, "[12]": {"assay": "Mouse pharmacokinetics, 10 mpk IP", "assay_type": "in vivo"}, "[13]": {"molecular_target": "Human Recombinant µ-Opioid Receptor OPRM1 (Homo sapiens, UniProt P35372)", "sequence (P35372 whole entry)": "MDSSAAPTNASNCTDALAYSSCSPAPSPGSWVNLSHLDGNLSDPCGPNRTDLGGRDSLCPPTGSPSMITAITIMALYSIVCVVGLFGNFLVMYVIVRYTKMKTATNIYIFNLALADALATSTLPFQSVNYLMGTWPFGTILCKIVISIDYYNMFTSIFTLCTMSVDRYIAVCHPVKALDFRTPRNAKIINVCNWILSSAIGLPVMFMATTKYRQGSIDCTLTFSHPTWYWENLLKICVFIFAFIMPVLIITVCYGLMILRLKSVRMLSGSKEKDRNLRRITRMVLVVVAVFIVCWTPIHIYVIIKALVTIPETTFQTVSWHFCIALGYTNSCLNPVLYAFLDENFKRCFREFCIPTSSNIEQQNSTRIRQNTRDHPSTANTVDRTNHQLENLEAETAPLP", "assay_type": "binding"}, "55 targets": {"test_system": "55 targets", "assay": "Profiling at 10 µM against 55 targets"}, "Solubility in PBS": {"assay": "Solubility in PBS", "assay_type": "physicochemical", "details": "aqueous buffer"}, "rats": {"test_system": "rats", "details": "cited from earlier work"}, "ERK phosphorylation": {"test_system": "ERK phosphorylation", "details": "rats, 1 mpk; cited from earlier work"}, "[14]": {"assay": "Stability after incubation in mouse liver microsomes", "details": "0 min"}},
  "note": "Like-named read-outs stand apart in the source and are kept apart here.",
  "data": [
    {"molecule": "O=C(NCc1ccc(F)cc1)N1CCN2C(=O)OC(c3ccccc3)(c3ccccc3)C2C1", "note": "(centres unmarked) [1b, 3-oxo-1,1-diphenyl-tetrahydro-oxazolo[3,4-a]pyrazine-7-carboxylic acid 4-fluoro-benzylamide]", "values": [
      {"measurement": "reduction of NPS-induced hyperlocomotion", "setting": "[1]", "value": "about 50%"},
      {"measurement": "brain level", "setting": "[2]", "value": "~6000", "unit": "nM"}
    ]},
    {"molecule": "C[n+]1cc(P(=S)(c2ccccc2)c2ccccc2)n2ccccc21", "note": "[13a, 3-(Diphenylphosphorothioyl)-1-methylimidazo[1,2-a]pyridin-1-ium]", "values": [
      {"measurement": "ERK assay inhibition at the highest concentration tested", "setting": "NPSR [3]; Table 1 footnote b, 50 µM", "value": "<50", "unit": "% ^b"}
    ]},
    {"molecule": "CCC(C)(CCN1CCOCC1)N(Cc1cc2ccccc2n(C)c1=O)C(=O)C1CCCCC1", "note": "(centres unmarked) [compound 2]", "values": [
      {"measurement": "% parent compd remaining after incubation in mouse liver microsomes", "setting": "[4]", "value": 100, "unit": "%"},
      {"measurement": "ex vivo occupancy of NPSR", "setting": "NPSR [5]", "value": "high ex vivo occupancy of NPSR"}
    ]},
    {"molecule": "[D-Cys(tBU)^5]NPS", "values": [
      {"measurement": "reversal of the anorectic effect of NPS", "setting": "Wistar rats [6]", "value": "reverse the anorectic effect of NPS"}
    ]},
    {"molecule": "NPS: neuropeptide S, peptide sequence SFRNGVGTGMKKTSFQRAKS, endogenous agonist of NPSR [reference compound]", "values": [
      {"measurement": "palatable food intake", "setting": "Wistar rats [7]; 10 µg NPS icv, 15, 30 and 60 min", "value": "marked reduction in food intake"}
    ]},
    {"molecule": "Cc1c(P(=S)(c2ccccc2)c2ccccc2)n2ccccc2[n+]1CCCc1ccccc1", "note": "[20d, 3-(Diphenylphosphorothioyl)-2-methyl-1-(3-phenylpropyl)imidazo[1,2-a]pyridin-1-ium]", "values": [
      {"measurement": "IC50", "setting": "NPSR [8]; IC50 in the calcium assay", "value": 1, "unit": "nM"},
      {"measurement": "IC50", "setting": "NPSR [3]; IC50 in the ERK assay", "value": 2, "unit": "nM"}
    ]},
    {"molecule": "Cc1c(P(=S)(c2ccccc2)c2ccccc2)[n+]2ccccc2n1C.[I-]", "note": "[compound 7, 3-(diphenylphosphorothioyl)-1,2-dimethylimidazo[1,2-a]pyridin-1-ium]", "values": [
      {"measurement": "chemical stability in aqueous buffers", "setting": "[9]", "value": "did not decompose to any other species"}
    ]},
    {"molecule": "Cc1c(P(=S)(c2ccccc2)c2ccccc2)n2ccccc2[n+]1C/C=C/c1ccccc1.[Br-]", "note": "[20e, 1-Cinnamyl-3-(diphenylphosphorothioyl)-2-methylimidazo[1,2-a]pyridin-1-ium]", "values": [
      {"measurement": "fold more potent than 1b in the cAMP assay", "setting": "NPSR [10]", "value": 9, "unit": "fold"},
      {"measurement": "fold more potent than 1b in the calcium assay", "setting": "NPSR [8]; relative to 1b", "value": 5, "unit": "fold"},
      {"measurement": "fold more potent than 1b in the displacement assay", "setting": "NPSR [11]", "value": 5, "unit": "fold"},
      {"measurement": "Brain concentration, mean", "setting": "[12]; 10 mpk IP, 0 hr", "value": "BQL"},
      {"measurement": "Plasma concentration, mean", "setting": "[12]; 10 mpk IP, 0 hr", "value": "BQL"},
      {"measurement": "Brain concentration, mean", "setting": "[12]; 10 mpk IP, 0 hr, N=3", "value": "BQL"},
      {"measurement": "Plasma concentration, mean", "setting": "[12]; 10 mpk IP, 0 hr, N=3", "value": "BQL"},
      {"measurement": "Brain concentration, mean", "setting": "[12]; 10 mpk IP, 0.083 hr", "value": 30, "unit": "nmol/g"},
      {"measurement": "Brain concentration, mean", "setting": "[12]; 10 mpk IP, 0.25 hr", "value": 52, "unit": "nmol/g"},
      {"measurement": "Brain concentration, mean", "setting": "[12]; 10 mpk IP, 0.5 hr", "value": 53, "unit": "nmol/g"},
      {"measurement": "Brain concentration, mean", "setting": "[12]; 10 mpk IP, 1 hr", "value": 44, "unit": "nmol/g"},
      {"measurement": "Brain concentration, mean", "setting": "[12]; 10 mpk IP, 2 hr", "value": 57, "unit": "nmol/g"},
      {"measurement": "Brain concentration, mean", "setting": "[12]; 10 mpk IP, 4 hr", "value": 53, "unit": "nmol/g"},
      {"measurement": "Brain concentration, mean", "setting": "[12]; 10 mpk IP, 8 hr", "value": 60, "unit": "nmol/g"},
      {"measurement": "Brain concentration, mean", "setting": "[12]; 10 mpk IP, 12 hr", "value": 93, "unit": "nmol/g"},
      {"measurement": "Brain concentration, mean", "setting": "[12]; 10 mpk IP, 24 hr", "value": 52, "unit": "nmol/g"},
      {"measurement": "concentration at 1 h", "setting": "[12]; plasma, ip, 10 mg/kg, Plasma concentration, mean, 10 mpk IP, 1 hr", "value": 556, "unit": "nM"},
      {"measurement": "concentration at 2 h", "setting": "[12]; plasma, ip, 10 mg/kg, Plasma concentration, mean, 10 mpk IP, 2 hr", "value": 386, "unit": "nM"},
      {"measurement": "concentration at 4 h", "setting": "[12]; plasma, ip, 10 mg/kg, Plasma concentration, mean, 10 mpk IP, 4 hr", "value": 245, "unit": "nM"},
      {"measurement": "concentration at 8 h", "setting": "[12]; plasma, ip, 10 mg/kg, Plasma concentration, mean, 10 mpk IP, 8 hr", "value": 214, "unit": "nM"},
      {"measurement": "concentration at 12 h", "setting": "[12]; plasma, ip, 10 mg/kg, Plasma concentration, mean, 10 mpk IP, 12 hr", "value": 126, "unit": "nM"},
      {"measurement": "concentration at 24 h", "setting": "[12]; plasma, ip, 10 mg/kg, Plasma concentration, mean, 10 mpk IP, 24 hr", "value": 54, "unit": "nM"},
      {"measurement": "adverse reactions", "setting": "[12]; single 10 mpk IP dose", "value": "No adverse reactions were observed"},
      {"measurement": "reversal of NPS-induced suppression of palatable food intake", "setting": "Wistar rats [7]; single 10 µg icv, before 10 µg NPS icv, 15, 30 and 60 min", "value": "reverse the suppression of food intake"},
      {"measurement": "fold activity relative to naloxone or morphine, DAMGO displacement", "setting": "[13]", "value": "< 200", "unit": "fold"},
      {"measurement": "inhibition of control in seven of 55 targets", "setting": "55 targets", "value": "> 90", "unit": "%"},
      {"measurement": "solubility kinetic", "setting": "Solubility in PBS; kinetic from dmso stock", "value": "> 150", "unit": "µM"},
      {"measurement": "solubility thermodynamic", "setting": "Solubility in PBS; thermodynamic from solid", "value": "~45", "unit": "µM"},
      {"measurement": "efficacy in rat alcohol models", "setting": "rats; IP dose of 1.0 mpk", "value": "show efficacy"},
      {"measurement": "alcohol self administration in rats", "setting": "rats; dose as low as 1 mpk", "value": "supression of alcohol self administartion"},
      {"measurement": "alcohol induced ERK phosphorylation in the central amygdala", "setting": "ERK phosphorylation", "value": "reduce alcohol induced ERK phosphorylation"},
      {"measurement": "% parent compd remaining after incubation in mouse liver microsomes", "setting": "[14]; with NADPH", "value": 100, "unit": "%"},
      {"measurement": "% parent compd remaining after incubation in mouse liver microsomes", "setting": "[14]; without NADPH", "value": 94, "unit": "%"}
    ]},
    {"molecule": "Cc1nc2ccccn2c1P(=S)(c1ccccc1)c1ccccc1", "note": "[12d, 3-(Diphenylphosphorothioyl)-2-methylimidazo[1,2-a]pyridine]", "values": [
      {"measurement": "IC50", "setting": "NPSR [3]; ERK IC50, Table 1, CHO-NPS cells, 1 nM NPS (EC80), one experiment in duplicate", "value": 30, "unit": "nM"}
    ]}
  ]
}
